# Reference: patent US20250025518A1, “USE OF BIFIDOBACTERIUM LACTIS BL-99 IN PROTECTION OF CARTILAGE” (Inner Mongolia Yili Industrial Group Co., Ltd., priority 2021, published 2025)
# System: zebrafish cartilage
# Test: Evaluation of cartilage protection efficacy: fluorescence intensity of cartilage in dexamethasone-induced zebrafish cartilage damage model
# Assay type: in vivo
# Settings: for Fluorescence intensity of cartilage (pixel, mean ± SE): n = 10
substance,measurement,setting,value
Chondroitin sulfate A sodium salt,"Fluorescence intensity of cartilage (pixel, mean ± SE)","Table 2, 1000 μg/mL",277530 ± 20981 pixel
same,Increased cartilage protection efficacy (%) compared with the model group,"Table 3, 1000 μg/mL",44%
same,"Fluorescence intensity of cartilage (pixel, mean ± SE)","Table 3, 1000 μg/mL",296517 ± 25160 pixel
